Several values for one entry are separate records, joined by “and”; a condition that tells them apart may be missing. Equal entries are not always repeated.

The subject of data set [1] is db/db mice. Description: Oral glucose tolerance test in db/db mice (blood glucose and blood lactic acid levels). The settings on record: subcutaneous, 30 min before oral glucose 3 g/kg, AUC up to 2 hours. It is filed as in vivo, mice (C57BLKS/J-m+/+Lepr<db>(db/db)). The text has this:
In a glucose tolerance test with oral administration to db/db mice, approximately 50% suppression of blood glucose level in the db/db mice produces a level increase similar to that of healthy mice, and therefore a blood glucose reduction rate of at least 40%, and especially at least 50%, is preferred.
Measurement of blood glucose reduction rate in db/db mice by a glucose tolerance test with oral administration may be carried out by a publicly known method, but the following method is preferred. Specifically, 11- to 17-week-old female mice (C57BLKS/J-m+/+Lepr(db/db) ) are starved for 18-24 hours. A group of five or six mice is used for the test. Blood is sampled from the tail for measurement of the blood glucose levels before treatment as a control. After sampling, the biguanide derivative is dissolved in phosphate-buffered saline to a suitable concentration and subcutaneously administered at a dose of 5 ml/kg. As a control there are prepared mice administered only the solvent. Glucose is then administered orally at a dose of 3 g/6 ml/kg at 30 minutes after administration of the compound or solvent as an oral glucose tolerance test. Blood is sampled from the tail for measurement of the blood glucose levels 30 minutes, 1 hour and 2 hours after glucose administration. The blood glucose levels are measured using a New Blood Sugar Test (Roche Diagnostics) or a Glucose CII-Test Wako (Wako Pure Chemical Industries, Ltd.).
(§1) The blood glucose reduction rate is calculated according to the following formula.
Blood glucose reduction rate (%)=[(AUC for blood glucose increase level of solvent-administered group—AUC for blood glucose increase level of compound-administered group)/AUC for blood glucose increase level of solvent-administered group]×100
The AUC for blood glucose increase level represents the area of the increase portion in a graph of the blood glucose level changes after glucose administration plotted with respect to time, up to 2 hours after glucose administration, with the glucose level prior to glucose administration as the baseline. Specifically, the AUC for the blood glucose increase level may be calculated by the following formula, where A=blood glucose level before glucose administration, B=blood glucose level 30 minutes after glucose administration, C=blood glucose level 1 hour after glucose administration, D=blood glucose level 2 hours after glucose administration.
AUC for blood glucose increase level=0.5×((A+B)/2-A)+0.5×((B+C)/2-A)+1×((C+D)/2-A)
Measurement of blood glucose reduction rate and blood lactic acid levels by the aforementioned oral glucose tolerance test may be carried out by a publicly known method, and the measurement of the former may be carried out by the method described above, while the following method is preferred for measurement of the latter. Specifically, 11- to 17-week-old female mice (C57BLKS/J-m+/+Lepr(db/db)) are starved for 18-24 hours. A group of five or six mice is used for the test. Blood is sampled from the tail for measurement of the blood lactic acid levels before treatment as a control. After sampling, the biguanide derivative is dissolved in phosphate-buffered saline to a suitable concentration and subcutaneously administered at a dose of 5 ml/kg. As a control there are prepared mice administered only the solvent. Glucose is then administered orally at a dose of 3 g/6 ml/kg at 30 minutes after administration of the compound or solvent as an oral glucose tolerance test. Blood is sampled from the tail for measurement of the blood lactic acid levels 30 minutes, 1 hour and 2 hours after glucose administration. The blood lactic acid levels are measured using an “Asuka Sigma” (Sigma Diagnostics)
The blood lactic acid level increase rate is calculated according to the following formula. […]

The subject of data set [2] is KKAy mice. Description: Hypoglycemic test by oral administration using KKAy mice. It counts as in vivo, mice (KKAy/Ta). Conditions: AUC for blood glucose up to 6 hours after administration.
Source text: The strength of the insulin sensitivity-enhancing effect may be evaluated based on the degree of blood glucose reduction rate with administration of the drug agent to KKAy mice. […] In hypoglycemic tests by oral administration using KKAy mice, approximately 45% suppression of blood glucose level in KKAy mice produces a level similar to healthy mice, and therefore a blood glucose reduction rate of 40-50% is preferred.
Measurement of blood glucose reduction rate in KKAy mice by a hypoglycemic test with oral administration may be carried out by a publicly known method, but the following method is preferred.
Specifically, a group of six 11-week-old male mice (KKAy/Ta) is used for the test. Blood is sampled from the tail for measurement of the blood glucose levels before treatment as a control. After sampling, the biguanide derivative is dissolved in a 0.5% CMC-Na (sodium carboxymethyl cellulose) solution to a suitable concentration and orally administered at a dose of 10 mL/kg. As a control there are prepared mice administered only the solvent. Blood is sampled from the tail to measure the blood glucose levels 1, 2, 4 and 6 hours after administration of the drug. The blood glucose levels are measured using a Glucose CII-Test Wako (Wako Pure Chemical Industries, Ltd.).
as §1
Blood glucose reduction rate (%)=[(AUC for blood glucose of control group—AUC for blood glucose of compound-administered group)/AUC for blood glucose of control group]×100
The AUC for blood glucose represents the area in a graph of the blood glucose level changes after administration of the drug plotted with respect to time, up to 6 hours after administration with a glucose level of 0 as the baseline. Specifically, the AUC for the blood glucose level may be calculated by the following formula, where A=blood glucose level before drug administration, B=blood glucose level 1 hour after drug administration, C=blood glucose level 2 hours after drug administration, D=blood glucose level 4 hours after drug administration, E=blood glucose level 6 hours after drug administration.
AUC for blood glucose level=1×((A+B)/2)+1×((B+C)/2)+2×((C+D)/2)+2×((D+E)/2)
A group of six 11-week-old male mice (KKAy/Ta) was used for the test. Blood was sampled from the tail for measurement of the blood glucose levels before treatment as a control. After sampling, furfuryl biguanide was dissolved in a 0.5% CMC-Na (sodium carboxymethyl cellulose) solution to a suitable concentration and orally administered at 10 mL/kg with the dosages shown in Table 1 (Examples 1-5). For comparison, metformin was also orally administered to mice in the doses shown in Table 1 (Comparative Examples 1-5). As a control there were prepared mice which had been orally administered the solvent alone. Blood was sampled from the tail to measure the blood glucose levels 1, 2, 4 and 6 hours after administration of the drug, and the blood glucose reduction rates were calculated by the formula given above. The blood glucose levels were measured using a Glucose CIT-Test Wako (Wako Pure Chemical Industries, Ltd.).

The mark [3] stands for this setting: Mus musculus, sc, 2 h, read-out: Blood glucose reduction rate (%).
Setting [4] is: Mus musculus, sc, 2 h, 75 mg/kg, read-out: Blood glucose reduction rate (%).
[5] abbreviates: Mus musculus, sc, 2 h, 200 mg/kg, read-out: Blood glucose reduction rate (%).

As to `CSCc1ccoc1CNC(=N)NC(=N)N` [1-[(3-Methylthiomethylfuran-2-yl)methyl] Biguanide], in data set [1] (setting [3]), the inhibition in vivo at 150 mg/kg amounted to 47.3%.
Regarding `CC(C)(C)c1ccc(CNC(=N)NC(=N)N)o1` [1-[(5-tert-butylfuran-2-yl)methyl] Biguanide], in data set [1] (setting [4]), the inhibition in vivo at 75 mg/kg was 62.1%.
`CN(C)C(=N)N=C(N)N` [Metformin, reference compound]: the inhibition in vivo at 100 mg/kg in data set [1] (setting [3]) was found to be 19.4%. Besides, the inhibition in vivo at 200 mg/kg in data set [1] (setting [5]) turned out to be 37.5%. Further, the “Blood lactic acid level increase rate (%)” value in data set [1] (200 mg/kg, 200 mg/kg) is 36.8% and 42.7%; in data set [1] (300 mg/kg, 300 mg/kg) it was 133.7% and 155.9% and 138.9% and 145.9%. Also, the “Blood glucose reduction rate (%)” value in data set [2] (150.0 mg/kg) amounted to 11.6%; in data set [2] (300.0 mg/kg), 6.4%; in data set [2] (600.0 mg/kg) it was 21.8%; in data set [2] (900.0 mg/kg) it was 32.7%; in data set [2] (1350.0 mg/kg) it was 46.4%.
With `CSCc1ccc(CNC(=N)NC(=N)N)o1` [1-[(5-Methylthiomethylfuran-2-yl)methyll] Biguanide], in data set [1] (setting [4]), the inhibition in vivo at 75 mg/kg stood at 46%.
As for `Cc1cc(CNC(=N)NC(=N)N)oc1C` [1-[(4,5-Dimethylfuran-2-yl)methyl] Biguanide], the inhibition in vivo at 75 mg/kg in data set [1] (setting [4]) stood at 52%.
On to `Cc1ccc(CNC(=N)NC(=N)N)o1` [1-(5-methylfurfuryl) biguanide], for which the inhibition in vivo at 25 mg/kg in data set [1] (Mus musculus, sc, 2 h, 25 mg/kg, read-out: Blood glucose reduction rate (%)) came out at 24.7%. In addition, the inhibition in vivo at 50 mg/kg in data set [1] (Mus musculus, sc, 2 h, 50 mg/kg, read-out: Blood glucose reduction rate (%)) came to 46.1%. Moreover, in data set [1] (setting [4]), the inhibition in vivo at 75 mg/kg worked out at 54.7%. Also, the inhibition in vivo at 100 mg/kg in data set [1] (setting [3]) amounted to 86.6%. In addition, the results for the “Blood lactic acid level increase rate (%)” value in data set [1] (25 mg/kg), in data set [1] (50 mg/kg) and in data set [1] (75 mg/kg) were 3.9%, 1.3% and 14.7%, respectively.
Regarding `N=C(N)NC(=N)NCc1ccco1` [Furfuryl biguanide, Furfuryl Biguanide], the inhibition in vivo at 20 mg/kg in data set [1] (Mus musculus, sc, 2 h, 20.0 mg/kg, read-out: Blood glucose reduction rate (%)) came out at 46.9%. For the same compound, in data set [1] (Mus musculus, sc, 2 h, 40.0 mg/kg, read-out: Blood glucose reduction rate (%)), the inhibition in vivo at 40 mg/kg worked out at 52.3%. Further, in data set [1] (setting [4]), the inhibition in vivo at 75 mg/kg turned out to be 60.6%. In data set [1] (Mus musculus, sc, 2 h, 80.0 mg/kg, read-out: Blood glucose reduction rate (%)), the inhibition in vivo at 80 mg/kg was 68.7%. Further, the “Blood lactic acid level increase rate (%)” value came out at 7.0% in data set [1] (20.0 mg/kg), 16.7% in data set [1] (40.0 mg/kg), 22.0% in data set [1] (75 mg/kg) and 11.2% in data set [1] (80.0 mg/kg). Moreover, the “Blood glucose reduction rate (%)” value in data set [2] (25.0 mg/kg) was 8.7%; in data set [2] (50.0 mg/kg) it was 15.2%; in data set [2] (100.0 mg/kg) it was 29.4%; in data set [2] (200.0 mg/kg), 43.9%; in data set [2] (300.0 mg/kg), 48.0%.
For `CCc1ccc(CNC(=N)NC(=N)N)o1` [1-[(5-ethylfuran-2-yl)methyl] biguanide, 1-[(5-Ethylfuran-2-yl)methyl] Biguanide], in data set [1] (setting [4]), the inhibition in vivo at 75 mg/kg turned out to be 71.3%.
On to `CSc1coc(CNC(=N)NC(=N)N)c1` [1-[(4-Methylthiofuran-2-yl)methyl] Biguanide], for which, in data set [1] (setting [4]), the inhibition in vivo at 75 mg/kg amounted to 44.1%. In data set [1] (setting [3]), the inhibition in vivo at 100 mg/kg came to 47.5% and the inhibition in vivo at 150 mg/kg worked out at 58.1%. Further, the inhibition in vivo at 200 mg/kg in data set [1] (setting [5]) is 73.9%.

The values are drawn from patent publication US20040063780A1, “Pharmaceutical preparations for treatment of type II diabetes and methods for treatment of type II diabetes” (CHUGAI SEIYAKU KABUSHIKI KAISHA, priority 2002, published 2004).
